Measurements as given in PMC6272279, “Carboxylated Acyclonucleosides: Synthesis and RNase A Inhibition” (Molecules, 2015).

Key:
[1] = biological target: T1, RNase A (Bos taurus, UniProt P61823); experiment: Comparative agarose gel-based assay of RNA degradation by RNase A; assay type: biochemical, Bovine; details: inhibitor 0.5 mM, RNase A 1 µM, RNA 10 mg/mL
T1 construct: purchased
T1 sequence (P61823 27-150): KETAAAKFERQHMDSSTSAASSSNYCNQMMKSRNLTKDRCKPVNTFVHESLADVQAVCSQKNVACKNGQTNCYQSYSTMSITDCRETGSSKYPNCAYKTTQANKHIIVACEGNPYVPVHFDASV
Procedure: Qualitative indication of RNase A inhibition by the synthetic inhibitors was obtained from a comparative agarose gel-based assay by monitoring the degradation of RNA by RNase A (Figure 2 and Figure 3). The most intense band observed in lane I in each gel is due to the presence of only RNA. […] These experimental observations reaffirmed our assumption that increasing the acidity of the molecules leads to an increase in the inhibitory property of the inhibitor.
Inhibition of RNase A was assayed qualitatively by the degradation of RNA in an agarose gel. In this method, 20 μL of RNase A (1 μM) was mixed with 20 μL (0.5 mM) of compounds U-ol-ol (5), C-ol-ol (16), U-acid (3), C-acid (14), U-ol-acid (8), C-ol-acid (18), U-di-acid (10), and C-di-acid (21) separately to a final volume of 50 μL and the resulting solutions incubated for 3 h. Twenty-microliter aliquots of the incubated mixtures were then mixed with 20 μL of RNA solution (10.0 mg/mL RNA, freshly dissolved in RNase free water) and incubated for another 30 min. Then 10 μL of sample buffer (containing 10% glycerol and 0.025% bromophenol blue) were added to this mixture and 15 μL from each solution were extracted and loaded onto a 1.1% agarose gel. The gel was run using a 0.04-M Tris-Acetic acid-EDTA (TAE) buffer (pH 8.0). The residual RNA was visualized by ethidium bromide staining under UV light.

[2] = biological target: T1, RNase A; experiment: Inhibition kinetics with RNase A (UV, 2',3'-cCMP substrate, Lineweaver–Burk plot); assay type: biochemical, Bovine; details: 0.1-M Mes-NaOH buffer pH 6.0, 0.1 M NaCl, substrate 2',3'-cCMP; mean ± SD; read-out: Inhibition constant Ki
Procedure: In order to determine the type of inhibition and the inhibition constant (Ki) values, kinetic experiments were performed with compounds U-ol-acid (8), U-di-acid (10), C-ol-acid (18), and C-di-acid (21). The competitive nature of inhibition in all the cases was apparent from the nature of the Lineweaver–Burk plots obtained from the kinetic experiments (Figure 4 and Figure S1 (SI)).
A quantitative account of RNase A inhibition by the individual inhibitors was obtained by a UV spectroscopic method described by Anderson and co-workers. The assay was performed in a 0.1-M Mes-NaOH buffer, pH 6.0 containing 0.1 M NaCl using 2',3'-cCMP as the substrate. The inhibition constants were calculated from initial velocity data using a Lineweaver–Burk plot. The slopes from the Lineweaver–Burk double reciprocal plot were plotted against the corresponding inhibitor concentrations to get inhibition constants (Ki).

[3] = biological target: T1, RNase A; experiment: Circular dichroism of RNase A secondary structure with inhibitor; design: species or system Bovine; details: RNase A 30 µM mixed with inhibitor 30 µM, 3 h; native RNase A 22.7%
Procedure: Inhibitors of RNase A are known to perturb the secondary structure of the enzyme upon binding. […] Therefore, the probable changes in the secondary structure of the enzyme by the inhibitors were monitored by observing the CD spectra of RNase A in the absence or presence of compounds U-di-acid (10) and C-di-acid (21) (Figure 5).
Circular Dichroism (CD) was performed in order to monitor the changes in the secondary structure of the enzyme as a result of interaction with the inhibitors. In this method, 200 µL of RNase A (30 µM) were mixed separately with 200 µL of U-di-acid (10) (30 µM) and C-di-acid (21) (30 µM) and incubated for 3 h. From the resulting solutions, an aliquot of 300 µL was used for CD measurements, taking a 1 mm path length quartz cell. The spectra were recorded in the range of 190–240 nm with a scan rate of 50 nm/min. Three scans were accumulated for each spectrum. The secondary structure was determined using an online server, DICHROWEB [46].

SMILES | RNase A inhibition, relative band intensities in agarose gel [1] | Ki [2] [µM] | melting point [°C] | α-helix content of RNase A upon binding [3] [%]
Nc1ccn(CC(=O)NCC(=O)O)c(=O)n1 [C-acid (14), [2-(4-Amino-2-oxo-2H-pyrimidin-1-yl)acetylamino] acetic acid] | – | – | > 200 | –
O=C(O)CN(CC(=O)O)C(=O)Cn1ccc(=O)[nH]c1=O [U-di-acid (10), {Carboxymethyl-[2-(2,4-dioxo-3,4-dihydro-2H-pyrimidin-1-yl)acetyl]amino}acetic acid] | relatively more potent inhibitors | 301 ± 15 | 118 to 120 | 24.7
O=C(O)CN(CCO)C(=O)Cn1ccc(=O)[nH]c1=O [U-ol-acid (8)] | relatively more potent inhibitors | 454 ± 9 | 177 to 179 | –

Now from value to compound:

RNase A inhibition, relative band intensities in agarose gel [1] | Ki [2] [µM] | melting point [°C] | α-helix content of RNase A upon binding [3] [%] | SMILES
relatively more potent inhibitors | 356 ± 7 | – | – | Nc1ccn(CC(=O)N(CCO)CC(=O)O)c(=O)n1 [C-ol-acid (18), [[2-(4-Amino-2-oxo-2H-pyrimidin-1-yl)acetyl]-(2-hydroxyethyl)amino] acetic acid]
relatively more potent inhibitors | 235 ± 9 | 190 to 193 | 29.2 | Nc1ccn(CC(=O)N(CC(=O)O)CC(=O)O)c(=O)n1 [C-di-acid (21), {[2-(4-Amino-2-oxo-2H-pyrimidin-1-yl)-acetyl]carboxymethylamino}acetic acid]
